According to US10231958B2, “Methods and compositions for enhancing chemotherapy” (THE BOARD OF REGENTS OF THE UNIVERSITY OF TEXAS SYSTEM, priority 2015, dated 2019):
In brackets after ≈: the same amount, converted by molar mass.

Key:
MDA-MB231 cells = test: Gene expression profiling (RNAseq) in MDA-MB231 cells; type: cell-based, human
Experimental: Human cancer cell-lines treated with different pharmaceutical compounds were profiled by RNA-seq protocol using Illumina HiSeq 2000 system (Illumina, San Diego, Calif.). RNA was harvested 0, 8 and 24 hours post treatment using the RNeasy protocol (Qiagen) and the purity of prepared RNA was determined using Agilent 2100 BioAnalyzer. Total RNA samples about […] were used for sequencing library preparation according to Illumina TruSeq Total RNA Sample Preparation Guide (Illumina Cat. #: RS-122-2201). Each library was bar-coded and then pooled for cluster generation and sequencing run with 100 bp paired-end (PE) sequencing protocol. Short read sequences from RNAseq were first aligned to UCSC hg19 genome build using TopHat2 algorithm (PMID:19289445) and then quantified for gene expression by HTSeq [Anders, 2014]. Genes with lower read counts (determined by examining read counts in non-exonic regions) were removed. Differential expression more than 2 fold was selected as differentially expressed genes (DEGs).
For those genes for which expression was higher than noise/background, significant change in expression compared to unexposed (0 h) control, ±2-fold change, was used as cut-off for induction/repression. The lists of genes with altered expression were analyzed using Ingenuity Systems (IPA, Ingenuity Pathway Analyzer, Qiagen), DAVID (PMID:19131956; PMID: 19033363), and Rock Breast Cancer Functional Genomic Database (PMID:20563840) analytical software (p<0.05; FDR<10%) to ensure a good coverage of both metabolic and transduction pathways (due to differences in pathways libraries with the databases). Only pathways related to biological processes/signaling were considered relevant, and the terms were grouped by similarity of the biological for presentation; disease related pathways were discarded. Transcription factor enrichment analysis was performed using the TFactS software (PMID:20215436), which uses an algorithm to compare potential transcription factors involved in the regulation of genes with the input lists. […]

MEFs = test: Metabolomics of GSH metabolites in MEFs; type: cell-based, mouse; details: MMS 40 μg/mL
Experimental: (§1) The 2.4×10^6 Kc167 or 2×10^6 MEFs were seeded using complete growth medium on Day 0 in a T-175 cell culture flask and were allowed to grow for three days. After treatments with MMS (40 μg/mL), cells were harvested and centrifuged at 8 and 24 hours, and washed using ice-cold PBS. The cell numbers were adjusted to 90×10^6 (Kc167) or 24×10^6 (MEF) and provided as 100 μL of packed cell pellet for metabolic profiling. Metabolomic profiling and data analysis was provided through mView service performed by Metabolon Inc., Durham, N.C. Five biological replicates of each group were used for analysis at each time point. In addition, detailed changes in nucleotide pools were measured in a separate set of experiments. Nucleotide quantification and Metabolomics Pathway Enrichment Analyses were performed through MetaboAnalyst 2.0 (Xia et al., 2012, Nucleic Acids Res 40(Web Server issue), W127-33; Xia et al., 2009, Nucleic Acids Res 37(Web Server issue), W652-60).

[1] = test system: NRF2, GCLC, ER stress markers; test: Western blot of NRF2, GCLC and ER stress markers; type: cell-based; details: MEFs, MDA-MB231, MCF-7; 8-12 h
Experimental: Western blot. Protein lysates were prepared using RIPA buffer containing 5% sodium deoxycholate, 0.1% SDS, 0.1% Igepal in PBS with a cocktail of protease and phosphatase inhibitors (1 mM PMSF, 1 mM sodium orthovanadate, 1 mM NaF, and 30 μL/mL aprotinin (Sigma-Aldrich, USA)) and clarified by centrifugation. Protein concentration was determined using Bradford Protein Assay Reagent (Biorad, Hercules, Calif.). Equal amounts of protein were resolved using 8-12% SDS polyacrylamide gel, transferred onto nitrocellulose membranes (Hybond-ECL, GE Healthcare Lifesciences, Piscataway, N.J.) and detected using Lumiglo system (Cell Signaling Technology, Calif.) and x-ray films. Primary antibodies included COX-2 (#4842), NRF2 (D1C9), p-JNK1/2 (Thr183/Tyr185, #4671), p-p38 (Thr180/Tyr182, #9216), p-ERK1/2 (Thr202/Tyr204, #9101), BiP/GRP78 (C50B12), IRE1a (14C10), CHOP (L63F7) and PERK (D11A8) from Cell Signaling Technology; p-IRE1a (Ser724; NB100-2323) from Novus Biologicals; GCLC (Ab41463), beta-actin (ab8227) and ATF6 (Ab37149) from Abcam; p-PERK (Thr 981, sc-32577) and ATF3 (C19) were purchased from Santa Cruz. All primary antibodies were used at 1:1000 dilutions and secondary antibodies were 1:3000 in TBS-T with 5% BSA.

Kc167 cells = test: Metabolomics of GSH metabolites in fly cells; type: cell-based, D. melanogaster; details: MMS 40 μg/mL
Experimental: as §1

[2] = test system: Kc167 cells, MEFs, and MDA-MB231 breast cancer cells; test: Cell viability (CellTiter-Glo); type: cell-based, D. melanogaster, mouse, human; details: Drosophila melanogaster, MDA-MB-231, 24 h
Experimental: The D. melanogaster embryonic cell line Kc167 was grown in Schneider medium (Invitrogen, Carlsbad, Calif.) supplemented with 10% heat-inactivated (56° C./30 min) fetal bovine serum (FBS), penicillin and streptomycin at 22° C. in a humidified incubator. Primary MEFs were obtained by harvesting 14.5-day C57BL/6J embryos as previously described (Ravi et al., 2009, PLoS Genet 5, e1000527). Briefly, fetal liver and head were removed and the remainder of the embryo was mechanically disaggregated in plating medium. A suspension of single-cells was plated in DMEM (plus 10% FBS, 100 U/mL penicillin and 100 μg/mL streptomycin). MEFs were grown for two passages before freezing aliquots. Aliquots were taken and expanded as needed for each experiment. MDA-MB231, SkBr3 and MCF-7 breast cancer cells lines were obtained from ATCC and grown in DMEM supplemented with 10% inactivated FBS plus antibiotics in a 37° C. humidified incubator at […] atmosphere. Cells were kept and treated in the exponential phase of growing (60-70% confluence). […] DMSO concentrations were kept to a maximum of 0.1% for all experiments. Cell viability was assessed using CellTiter-Glo Luminescent Viability assay (Promega) in 384 or 96-well plates white-border clear-bottom plated cells. For caspase-3/7 activity, Caspase-Glo 3/7 Assay kits were used (Promega). For caspase assays, the cells were seeded in 96-well plates and assayed directly after treatments. Caspase-3/7 inhibitor (Z-DEVD-fmk) was used to ensure assay specificity. LDH release into culture medium was quantified by Cytotox-96 Non-Radioactive assay kit in agreement with instructions (Promega).

Compound: CNC(=O)c1cc(Oc2ccc(NC(=O)Nc3ccc(Cl)c(C(F)(F)F)c3)cc2)ccn1 [sorafenib, 4-[4-[[4-chloro-3-(trifluoromethyl)phenyl]carbamoylamino]phenoxy]-N-methyl-pyridine-2-carboxamide]
- effect on NRF2 and UPR genes (MDA-MB231 cells; 5 μM sorafenib): lack of effect
- effect on basal gene expression (VEGFA, HES1, MAML3, PLAT, ADAMST1) (MDA-MB231 cells; 5 μM sorafenib): decreased basal expression of several genes
- effect on MMS-induced inflammatory/invasive genes (MDA-MB231 cells; 5 μM sorafenib plus MMS): blocked several of the aforementioned MMS-induced inflammatory/invasive genes

Compound: COS(C)(=O)=O [MMS, methyl-methanesulfonate]
- increase in methyl-GSH (MEFs): 100 fold
- NRF2 and GCLC protein levels [1]: rapidly increased in total and nuclear fractions
- increase in methyl-GSH (Kc167 cells): 300 fold
- IC90 [2]: 80 µg/mL (≈ 726 µM)
